# Read-outs that look alike come from different tables or passages of the source.
# Columns and labels:
# [1] = system: human biliary-derived cultures; experiment: Expansion of human biliary-derived liver cultures; type: cell-based; conditions: 500 uM added to expansion medium (ERFHNic and ENRWFHNic)
# Lgr5 = conditions: Lgr5-LacZ knockin mice; for Lgr5 reporter expression in the liver: 0.8 ml/kg injection
# Wnt signalling = Wnt signalling reporter (LacZ) in liver of Axin2-LacZ mice; conditions: after injection
# liver organoid cultures = experiment: Hepatocyte differentiation of liver organoid cultures by added compounds, RT-PCR of hepatocyte markers; conditions: titration, hepatocyte marker expression 7 days
molecule,measurement,setting,value
"Cc1cccc(-c2nn(C(=S)Nc3ccccc3)cc2-c2ccnc3ccccc23)n1 [A83-01, 3-(6-Methyl-2-pyridinyl)-N-phenyl-4-(4-quinolinyl)-1H-pyrazole-1-carbothioamide]",expansion of human biliary-derived cultures,[1],able to expand human biliary-derived cultures
"ClC(Cl)(Cl)Cl [CC14, carbon tetrachloride]",time of peak Lgr5 reporter expression after injury,Lgr5,6.5 days
same,Lgr5 reporter expression in the liver,Lgr5,induces Lgr5 expression in the liver at sites of active regeneration
same,Lgr5 reporter expression in the liver,Lgr5; listed as CCL4,upregulation of Lgr5
same,Wnt signalling in the liver,Wnt signalling; listed as CCL4,Wnt signalling is activated
C[C@H](NC(=O)Cc1cc(F)cc(F)c1)C(=O)N[C@H](C(=O)OC(C)(C)C)c1ccccc1 [DAPT],maximal concentration efficiency,liver organoid cultures,10 µM
"R-spondin1: Wnt agonist, secreted protein of the R-spondin family; Lgr5 ligand (protein, UniProt Q2MKA7 21-263, looked up) R-spondin-1: SRGIKGKRQRRISAEGSQACAKGCELCSEVNGCLKCSPKLFILLERNDIRQVGVCLPSCPPGYFDARNPDMNKCIKCKIEHCEACFSHNFCTKCKEGLYLHKGRCYPACPEGSSAANGTMECSSPAQCEMSEWSPWGPCSKKQQLCGFRRGSEERTRRVLHAPVGDHAACSDTKETRRCTVRRVPCPEGQKRRKGGQGRRENANRNLARKESKEAGAGSRRRKGQQQQQQQGTVGPLTSAGPA",Wnt signalling in the liver,Wnt signalling,liver cells are responsive to Wnt stimulation
same,Wnt signalling in the liver,Wnt signalling; listed as R-spondin,upregulation of Wnt signalling expression in the liver ducts

# Reference: patent US11034935B2, “Liver organoid, uses thereof and culture method for obtaining them” (Koninklijke Nederlandse Akademie van Wetenschappen, priority 2010, dated 2021)
